Values quoted from earlier work, collected in US20250339399A1, “SUPRAMOLECULAR SELF-ASSEMBLY SYSTEM” (Beijing Creatron Institute of Pharmaceutical Research Co., …, priority 2022, published 2025).

Conditions: Cannabidiol derivatives, Table 30 (chemical structures); cited from earlier work

Molecule	Log P
C=C(C)[C@@H]1CCC(C)=C[C@H]1c1c(O)cc(CCC)cc1O [compound 3, ((1′R,2′R)-5′-methyl-2′-(prop-1-en-2-yl)-4-propyl-1′,2′,3′,4′-tetrahydro-[1,1′-biphenyl]-2,6-diol)]	Log P = 5.44 H-D:2,H-R = 2
C=C(C)[C@@H]1CCC(C)=C[C@H]1c1c(O)cc(CCCC)cc1O [compound 4, ((1′R,2′R)-4-butyl-5′-methyl-2′-(prop-1-en-2-yl)-1′,2′,3′,4′-tetrahydro-[1,1′-biphenyl]-2,6-diol)]	Log P = 5.88 H-D:2,H-R = 2
C=C(C)[C@@H]1CCC(C)=C[C@H]1c1c(O)cc(CCC)c(C(=O)O)c1O [compound 6, ((1′R,2′R)-2,6-dihydroxy-5′-methyl-2′-(prop-1-en-2-yl)-4-propyl-1′,2′,3′,4′-tetrahydro-[1,1′-biphenyl]-3-carboxylic acid)]	5.74
C=C(C)[C@@H]1CCC(C)=C[C@H]1c1c(O)cc(CCCCC)cc1OC [compound 7, ((1′R,2′R)-6-methoxy-5′-methyl-4-pentyl-2′-(prop-1-en-2-yl)-1′,2′,3′,4′-tetrahydro-[1,1′-biphenyl]-2-ol)]	Log P = 6.47 H-D:1,H-R = 2
C=C(C)c1ccc(C)cc1-c1c(O)cc(CCCCC)cc1O [compound 8, (5′-methyl-4-pentyl-2′-(prop-1-en-2-yl)-[1,1′-biphenyl]-2,6-diol)]	Log P = 6.85 H-D:2,H-R = 2
C=C(C)[C@@H]1CCC(C(=O)O)=C[C@H]1c1c(O)cc(CCCCC)cc1O [compound 10, ((1R,6R)-2′,6′-dihydroxy-4′-pentyl-6-(prop-1-en-2-yl)-1,4,5,6-tetrahydro-[1,1′-biphenyl]-3-carboxylic acid)]	5.52
C=C(C)[C@@H]1CCC(CO)=C[C@H]1c1c(O)cc(CCCCC)cc1O [compound 11, ((1′R,2′R)-5′-(hydroxymethyl)-4-pentyl-2′-(prop-1-en-2-yl)-1′,2′,3′,4′-tetrahydro-[1,1′-biphenyl]-2,6-diol)]	Log P = 5.04 H-D:3,H-R = 3
C=C(C)[C@H]1CC[C@H](C)C[C@@H]1c1c(O)cc(/C=C/c2ccccc2)cc1O [compound 14, (2-((1S,2S,5S)-5-methyl-2-(prop-1-en-2-yl)cyclohexyl)-5-((E)-styryl)phenyl-1,3-diol)]	Log P = 6.78 H-D:2,H-R = 2
C=C(C)[C@H]1CC[C@H](C)C[C@@H]1c1c(O)cc(/C=C/c2ccccc2O)cc1O [compound 15, (5-((E)-2-hydroxystyryl-2-(1S,2S,5S)-5-methyl-2-(prop-1-en-2-yl)cyclohexyl)phenyl-1,3-diol)]	Log P = 6.48 H-D:3,H-R = 3
C=C(C)[C@H]1CC[C@H](C)C[C@@H]1c1c(O)cc(-c2cc3ccccc3o2)cc1O [compound 16]	Log P = 6.17 H-D:2,H-R = 2
C=C(C)[C@H]1CCC(C)=C[C@@H]1c1c(O)cc(O)c(C(=O)CCc2ccccc2)c1O [compound 18, (3-phenyl-1-((1′S,2′S)-2,4,6-trihydroxy-5′-methyl-2′-(prop-1-en-2-yl)-1′,2′,3′,4′-tetrahydro-[1,1′-biphenyl]-3-yl)prop-1-one)]	Log P = 6.87 H-D:3,H-R = 4
C=C(C)[C@H]1CCC(C)=C[C@@H]1c1c(O)cc(CCCCC)cc1O [compound 19, ((1′S,2′S)-5′-methyl-4-pentyl-2′-(propanediol-1-en-2-yl)-1′,2′,3′,4′-tetrahydro-[1,1′-biphenyl]-2,6-diol)]	Log P = 6.33 H-D:2,H-R = 2
CCCCCc1cc(O)c([C@@H]2C=C(C)CC[C@H]2C(C)C)c(O)c1 [compound 20, ((1′S,2′S)-2′-isopropyl-5′-methyl-4-pentyl-1′,2′,3′,4′-tetrahydro-[1,1′-biphenyl]-2,6-diol)]	Log P = 6.67 H-D:2,H-R = 2
CCCCCc1cc(O)c([C@@H]2CC(C)CC[C@H]2C(C)C)c(O)c1 (stereo partly drawn) [compound 21, (2-((1R,2S)-2-isopropyl-5-methylcyclohexyl)-5-pentylbenzene-1,3-diol)]	Log P = 7.08 H-D:2,H-R = 2
CCCCCc1cc(O)c([C@@H]2C=C(CO)CC[C@H]2C(C)C)c(O)c1 [compound 22, ((1′S,2′S)-5′-(hydroxymethyl)-2′-isopropyl-4-pentyl-1′,2′,3′,4′-tetrahydro-[1,1′-biphenyl]-2,6-diol)]	Log P = 5.39 H-D:3,H-R = 3
CCCCCc1cc(O)c([C@H]2C=C(CO)CC[C@H]2C(C)C)c(O)c1 [compound 23, ((1′R,2′S)-5′-(hydroxymethyl)-2′-isopropyl-4-pentyl-1′,2′,3′,4′-tetrahydro-[1,1′-biphenyl]-2,6-diol)]	Log P = 5.39 H-D:3,H-R = 3
C=C(C)[C@@H]1CCC(C)=C[C@H]1c1c(O)cc(C(C)(C)CCCCCC)cc1O [compound 24, ((1′R,2′R)-5′-methyl-4-(2-methyloctan-2-yl)-2′-(prop-1-en-2-yl)-1′,2′,3′,4′-tetrahydro-[1,1′-biphenyl]-2,6-diol)]	Log P = 7.38 H-D:2,H-R = 2

Molecule	Log P
C=C(C)[C@@H]1CCC(C(=O)O)=C[C@H]1c1c(O)cc(C(C)(C)CCCCCC)cc1O [compound 25, ((1R,6R)-2′,6′-dihydroxy-4′-(2-methyloctan-2-yl)-6-(prop-1-en-2-yl)-1,4,5,6-tetrahydro-[1,1′-biphenyl]-3-carboxylic acid)]	Log P = 6.99 H-D:3,H-R = 4
C=C(C)[C@@H]1CCC(CO)=C[C@H]1c1c(O)cc(C(C)(C)CCCCCC)cc1O [compound 26, ((1′R,2′R)-5′-(hydroxymethyl)-4-(2-methyloctan-2-yl)-2′-(prop-1-en-2-yl)-1′,2′,3′,4′-tetrahydro-[1,1′-biphenyl]-2,6-diol)]	Log P = 6.52 H-D:3,H-R = 3
CCCCCCC(C)(C)c1cc(O)c([C@@H]2CC(C)CC[C@H]2C(C)C)c(O)c1 (stereo partly drawn) [compound 29, (2-((1R,2S)-2-isopropyl-5-methylcyclohexyl)-5-(2-methyloctan-2-yl)benzene-1,3-diol)]	Log P = 8.55 H-D:2,H-R = 2
CCCCCCC(C)(C)c1cc(OC)c([C@H]2C=C(CO)[C@H]3C[C@@H]2C3(C)C)c(OC)c1 [compound 30]	Log P = 6.39 H-D:1,H-R = 3
CCCCCCC(C)(C)c1cc(OC)c(C2C=C(CO)[C@@H]3C[C@H]2C3(C)C)c(OC)c1 (some centres unmarked) [compound 31]	Log P = 6.39 H-D:1,H-R = 3
C=C(C)[C@@H]1CCC(C)=C[C@H]1c1c(O)cc(CCCC(=O)O)cc1O [compound 36, (4-((1′R,2′R)-2,6-dihydroxy-5′-methyl-2′-(prop-1-en-2-yl)-1′,2′,3′,4′-tetrahydro-[1,1′-biphenyl]-4-yl)butyric acid)]	Log P = 4.59 H-D:3,H-R = 4
C=C(C)[C@@H]1CCC(C)=C[C@H]1c1ccc(CCCCC)cc1O [compound 48, ((1′R,2′R)-5′-methyl-4-pentyl-2′-(prop-1-en-2-yl)-1′,2′,3′,4′-tetrahydro-[1,1′-biphenyl]-2-ol)]	Log P = 6.63 H-D:1, H-R = 1
C=C(C)[C@@H]1CCC(C)=C[C@H]1c1c(O)cc(CCCCC)cc1OCC(=O)O [compound 50]	Log P = 5.95 H-D:2,H-R = 4
C=C(C)[C@@H]1CCC(C)=C[C@H]1c1c(O)cc(CCCCC)cc1OCCCN [compound 51, ((1′R,2′R)-6-(3-aminopropoxy)-5′-methyl-4-pentyl-2′-(prop-1-en-2-yl)-1′,2′,3′,4′-tetrahydro-[1,1′-biphenyl]-2-ol)]	Log P = 5.73 H-D:2,H-R = 3
C=C(C)[C@@H]1CCC(C)=C[C@H]1c1c(OC(=O)CO[Si](C)(C)C(C)(C)C)cc(CCCCC)cc1OC(=O)CO[Si](C)(C)C(C)(C)C [compound 54]	Log P = 9.55 H-D:0,H-R = 4
C=C(C)[C@@H]1CC(OC(C)=O)C(C)=C[C@H]1c1c(OC(C)=O)cc(CCCCC)cc1OC(C)=O (stereo partly drawn) [compound 57, (3-(acetyloxy)-2-[(1R,6R)-4-(acetyloxy)-3-methyl-6-(prop-1-en-2-yl)cyclohex-2-en-1-yl]-5-pentylphenyl acetate)]	Log P = 5.36 H-D:0,H-R = 3
C=C(C)[C@@H]1CCC(C)=C[C@H]1C1=C(O)C(=O)C(CCCCC)=CC1=O [compound 59, (3-hydroxy-2-[(1R,6R)-3-methyl-6-prop-1-en-2-ylcyclohex-2-en-1-yl]-5-pentylcyclohex-2,5-diene-1,4-dione)]	Log P = 5.23 H-D:1,H-R = 3
C=C(C)[C@@H]1CCC(C)=C[C@H]1C1=C(O)C(=O)C(CCCCC)=C(NCc2ccccc2)C1=O [compound 61, (2,5-cyclohexadiene-1,4-dione, 2-hydroxy-3-((1R,6R)-3-methyl-6-(1-methylvinyl)-2-cyclohexen-1-yl)-6-pentyl-5-((benzyl)amino))]	Log P = 6.23 H-D:2,H-R = 4
C=C(C)[C@@H]1CCC(C)=C[C@H]1c1c(C)cc(O)cc1O [compound 62, (5-methyl-4-[(1R,6R)-3-methyl-6-prop-1-en-2-ylcyclohex-2-en-1-yl]benzene-1,3-diol)]	Log P = 4.55 H-D:2,H-R = 2
C=C(C)[C@@H]1CCC(C)=C[C@H]1c1c(O)cc(O)cc1CCCCC [compound 63, (4-[(1R,6R)-3-methyl-6-prop-1-en-2-ylcyclohex-2-en-1-yl]-5-pentylbenzene-1,3-diol)]	Log P = 6.33 H-D:2,H-R = 2
CCCCCc1cc(O)c2c(c1)OC(C)(C)[C@@H]1CCC(C)=C[C@@H]21 [compound 66, Tetrahydrocannabinol]	Log P = 5.73 H-D:1,H-R = 2
(2-[(1R,2R)-2-[2,6- di(acetoxy)-4- pentenyl]-4- methylcyclohex-3- en-1-yl]prop-2-en- 1-yl acetate) [compound 58]	Log P = 5.31 H-D:0,H-R = 3

Same assay, conditions: Cannabidiol derivatives; pH 7.4; cited from earlier work

Molecule	Log D7.4
C=C(C)[C@@H]1CCC(C)=C[C@H]1c1c(O)cc(CCCCC)c(C(=O)O)c1O [compound 5, ((1′R,2′R)-2,6-dihydroxy-5′-methyl-4-pentyl-2′-(prop-1-en-2-yl)-1′,2′,3′,4′-tetrahydro-[1,1′-biphenyl]-3-carboxylic acid)]	3.15
C=C(C)[C@@H]1CCC(C)=C[C@H]1c1c(O)cc(CCC)c(C(=O)O)c1O [compound 6, ((1′R,2′R)-2,6-dihydroxy-5′-methyl-2′-(prop-1-en-2-yl)-4-propyl-1′,2′,3′,4′-tetrahydro-[1,1′-biphenyl]-3-carboxylic acid)]	2.26
C=C(C)[C@@H]1CCC(C(=O)O)=C[C@H]1c1c(O)cc(CCCCC)cc1O [compound 10, ((1R,6R)-2′,6′-dihydroxy-4′-pentyl-6-(prop-1-en-2-yl)-1,4,5,6-tetrahydro-[1,1′-biphenyl]-3-carboxylic acid)]	2.40

Same assay, conditions: cited from earlier work

Molecule	Log P
CCCCCc1cc(O)c(C/C=C(\C)CCC=C(C)C)c(O)c1 [compound 64, (2-[(2E)-3,7-dimethylocta-2,6-dienyl]-5-pentylbenzene-1,3-diol)]	Log P = 7.05 H-D:2,H-R = 2
